Source: US20100003711A1, “Methods to identify therapeutic agents” (THE SCRIPPS RESEARCH INSTITUTE, priority 2005, published 2010)

What was measured:
[1] = system: ICAM-1 (CD54); assay: Endothelial adhesion molecule expression by ELISA, ICAM-1; format: cell-based, human; conditions: HAAE-1, not complexed with LDL
Experimental: (§1) Endothelial cell surface adhesion molecule expression was measured by ELISA, using anti-human CD54 (ICAM-1), CD106 (VCAM-1) and CD62E (E-Selectin) antibodies (Leinco Technologies, Inc., St. Louis, Mo.). The ELISA method was modified from previously described procedures.
(§2) Cells were then incubated with antibodies to VCAM-1, E-selectin, or ICAM-1 diluted 1:400 in PBS containing 5% FCS at 37° C. for 30 min. Wells were washed two times with PBS, then incubated with horseradish peroxidase (HRP)-conjugated goat anti-mouse IgG (Southern Biotechnology Associates, Birmingham, Ala., USA) in PBS/5% FCS at 37° C. for 30 min. The wells were washed four times with PBS, then incubated with H2O2/3,3′,5,5′-tetramethyl-benzidine peroxidase substrate (Pierce Chemical, Rockford, Ill., USA) for 30 min in the dark. The reaction was stopped by adding 25 μl of 8 N H2SO4, and the plates read on a microplate reader, blanking on wells stained with only secondary antibody. Each assay was performed in triplicate and the data are reported as the mean±SEM as a percentage of the expression level of the vehicle. To study the effect of cholesterol ozonation product 5a concentration (5-50 μM) on E-selectin expression, the assay was performed in an identical fashion as described above, with each point being the mean±SEM of at least duplicate measurements.

[2] = system: murine macrophage J774A.1; assay: Modified Boyden chamber migration (chemotaxis) assay; format: cell-based
Experimental: Chemotaxis and invasion assays were performed using a modified Boyden chamber migration assay. Zwirner et al. (1998) Eur. J. Immunol. 28: 1570-77; Wilkinson (1988) Methods Enzymol. 162: 38-50. Assays were set up on MultiScreen-MIC plates (Millipore, Billerica, Mass., USA) with polyvinylpyrrolidone-free polycarbonate membranes (5 μm pore size). Cells (murine macrophage J774A.1) were washed and resuspended in serum-free DMEM containing 0.2% BSA at 1×10^6 cells/ml. Fifty microliters of cells were added to the upper wells and 150 μl of chemoattractant in DMEM/0.2% BSA were added to the lower wells of the microchamber. Incubation time was for 4 h at 37° C. in an 8% CO2 atmosphere. After swiping cells off the upper side of the membrane, cells on the lower side were visualized by either staining and phase contrast microscopy, or fluorescence. Cells that had adhered to the membrane were stained using a DiffQuik staining kit (Dade Behring, Newark, Del.). Each experiment was performed in triplicate and the numbers of migrating cells were counted in five fields at ×200. Cells harvested with PBS-EDTA for fluorescent labeling were washed two times with PBS, then resuspended in serum-free medium containing calcein AM (5 μM). Cells were incubated for 30 min (37° C., 5% CO2) with gentle intermittent mixing. Calcein-labeled cells were washed twice, and calcein fluorescence ([…]) was measured using a SPECTRAmax™ GEMINI dual-scanning microplate spectrofluorometer. Fluorescence measurements were compared to a standard curve, generated by dilution of cells in PBS/BSA in 100 μl, dispensed into 96-well plates. Fluorescence was quantified as described above.

[3] = system: neuronal cell lines; assay: Cytotoxicity towards neuronal cell lines (similar procedures); format: cell-based
[4] = system: Class A scavenger receptor (SR-A); assay: Scavenger receptor expression by flow cytometry, SR-A; format: cell-based, murine; conditions: cultured macrophages, compound in the absence of LDL
Experimental: Cell surface CD36 and SR-A were measured by flow cytometry using CD36 (BD Biosciences Pharmingen, San Diego, Calif.) and CD204 (Serotec, Oxford, UK) specific monoclonal antibodies. See Liao et al. (2000) Arterioscler. Thromb. Vasc. Biol. 20: 1968-75; Hu et al. (1996) Blood 87: 2020-28. Murine macrophage J774A.1 cells were serum-starved overnight in media with 0.5% BSA. Cells (1×10^6) treated with cholesterol ozonation products or cholesterol ozonation product complexed with LDL for specified times were then washed twice with PBS. […] Expression of either CD36 or SR-A was determined with CD36 (BD Biosciences Pharmingen, San Diego, Calif.) and CD204 (Serotec, Oxford, U.K.) specific monoclonal antibodies, respectively. After washing off the primary antibody, secondary antibodies were added, cells were washed again, then analyzed on a FACS calibur 2 (Becton Dickinson, Sparks, Md.) flow cytometer and analyzed by CellQuant software. Results were expressed as mean fluorescence intensity±standard error of the mean (SEM) of at least duplicate determinations. Significance was determined using a student two-tail t test, with (*) indicating p<0.05, and (**) indicating p<0.01 versus the control.

[5] = system: CD36; assay: Scavenger receptor expression by flow cytometry, CD36; format: cell-based, murine
Experimental: Cell surface CD36 and SR-A were measured by flow cytometry using CD36 (BD Biosciences Pharmingen, San Diego, Calif.) and CD204 (Serotec, Oxford, UK) specific monoclonal antibodies. See Liao et al. (2000) Arterioscler. Thromb. Vasc. Biol. 20: 1968-75; Hu et al. (1996) Blood 87: 2020-28. Murine macrophage J774A.1 cells were serum-starved overnight in media with 0.5% BSA. Cells (1×10^6) treated with cholesterol ozonation products or cholesterol ozonation product complexed with LDL for specified times were then washed twice with PBS. After harvesting the cells by scraping, they were fixed with 6% paraformaldehyde for 20 min; Cells were then resuspended in PBS containing 2% heat-inactivated FCS, 0.05% NaN3 and appropriate primary antibody, antibody conjugate or isotype control (1:100 dilution) and incubated on ice for 30 min. Expression of either CD36 or SR-A was determined with CD36 (BD Biosciences Pharmingen, San Diego, Calif.) and CD204 (Serotec, Oxford, U.K.) specific monoclonal antibodies, respectively. After washing off the primary antibody, secondary antibodies were added, cells were washed again, then analyzed on a FACS calibur 2 (Becton Dickinson, Sparks, Md.) flow cytometer and analyzed by CellQuant software. Results were expressed as mean fluorescence intensity±standard error of the mean (SEM) of at least duplicate determinations. Significance was determined using a student two-tail t test, with (*) indicating p<0.05, and (**) indicating p<0.01 versus the control.

[6] = Decrease of extractable 5a in stored plasma; format: in vitro ADME; conditions: stored human plasma, preliminary investigations
Experimental: Plasma samples were obtained from patients (n=8) who were scheduled to undergo carotid endarterectomy within 24 h. […] Control plasma samples were obtained from random patients (n=15) attending a general medical clinic and were analyzed 7 days after collection. In a typical procedure, plasma in EDTA (1 ml) was washed with dichloromethane (DCM, 3×1 mL). The combined organic fractions were evaporated in vacuo. The residue was dissolved in methanol (0.9 mL) and a solution of 2,4-dinitrophenyl hydrazine (100 μL, 0.01 M, Lancaster) and 1N HCl in ethanol was added. Nitrogen was bubbled through the solution for 5 min and then the solution was stirred for 2 h. The resultant solution was filtered through a 0.22 μm filter and the filtrate was analyzed by the HPLC assay vide supra.

[7] = system: THP-1 monocytes; assay: Monocyte morphology changes (differentiation into macrophages); format: cell-based, human; conditions: 12.5 or 25 μM, up to 7 days
Experimental: THP-1 monocytes in suspension were plated in 8-well chambered slides. […] Media containing appropriate treatment compounds was replaced after 4 days. After 4 days treatment, morphologic changes of the adherent cells were assessed by phase-contrast microscopy and photographed using an Olympus Microfire digital camera.

[8] = system: E-selectin (CD62E); assay: Endothelial adhesion molecule expression by ELISA, E-selectin; format: cell-based, human; conditions: HAAE-1, not complexed with LDL
Experimental: as §1, §2

[9] = system: J774.1 macrophages; assay: Lipid-loading assay (foam cell formation); format: cell-based, murine; conditions: LDL 100 μg/mL with 4a or 5a (20 μM), 72 h, unactivated J774.1 macrophages
Experimental: Lipid-loading assay (foam cell formation). J774.1 macrophages were incubated in ATCC-recommended media containing 10% fetal bovine serum under a controlled atmosphere of 5 or 7% CO2 at 37° C., in 8-well chamber slides. […] At termination, cells were washed twice with PBS (pH 7.4). The cells were then fixed with 6% (v/v) paraformaldehyde in PBS for 30 minutes, rinsed with propylene glycol for 2 minutes and lipids were stained with 5 mg/ml Oil Red 0 for 8 minutes. The cells were counterstained with Harris' hematoxylin for 45 seconds, and background staining was removed with 6% paraformaldehyde followed by washing once in PBS and once in tap water. Cover slips were mounted onto the glass slides using glycerol and the slide preparations were examined by light microscopy. The number of lipid-laden cells was scored out of a total of at least 100 cells counted in a single field in each slide, and expressed as a percentage of total cells. Photographs were taken at 100× magnification.

[10] = system: VCAM-1 (CD106); assay: Endothelial adhesion molecule expression by ELISA, VCAM-1; format: cell-based, human; conditions: HAAE-1, not complexed with LDL
Experimental: as §1, §2

[11] = system: U-937 monocytes cells; assay: Monocyte adhesion to endothelial cell monolayers by fluorescence spectroscopy; format: cell-based; conditions: alone or in complex with LDL
[12] = biological target: LDL / apoB-100 (Homo sapiens, UniProt P04114); assay: Circular dichroism of LDL secondary structure; conditions: LDL 100 μg/ml with 10 μM compound, PBS pH 7.4, 37° C., up to 48 h; normal LDL ~40±2%
Sequence of LDL / apoB-100 (P04114 28-4563): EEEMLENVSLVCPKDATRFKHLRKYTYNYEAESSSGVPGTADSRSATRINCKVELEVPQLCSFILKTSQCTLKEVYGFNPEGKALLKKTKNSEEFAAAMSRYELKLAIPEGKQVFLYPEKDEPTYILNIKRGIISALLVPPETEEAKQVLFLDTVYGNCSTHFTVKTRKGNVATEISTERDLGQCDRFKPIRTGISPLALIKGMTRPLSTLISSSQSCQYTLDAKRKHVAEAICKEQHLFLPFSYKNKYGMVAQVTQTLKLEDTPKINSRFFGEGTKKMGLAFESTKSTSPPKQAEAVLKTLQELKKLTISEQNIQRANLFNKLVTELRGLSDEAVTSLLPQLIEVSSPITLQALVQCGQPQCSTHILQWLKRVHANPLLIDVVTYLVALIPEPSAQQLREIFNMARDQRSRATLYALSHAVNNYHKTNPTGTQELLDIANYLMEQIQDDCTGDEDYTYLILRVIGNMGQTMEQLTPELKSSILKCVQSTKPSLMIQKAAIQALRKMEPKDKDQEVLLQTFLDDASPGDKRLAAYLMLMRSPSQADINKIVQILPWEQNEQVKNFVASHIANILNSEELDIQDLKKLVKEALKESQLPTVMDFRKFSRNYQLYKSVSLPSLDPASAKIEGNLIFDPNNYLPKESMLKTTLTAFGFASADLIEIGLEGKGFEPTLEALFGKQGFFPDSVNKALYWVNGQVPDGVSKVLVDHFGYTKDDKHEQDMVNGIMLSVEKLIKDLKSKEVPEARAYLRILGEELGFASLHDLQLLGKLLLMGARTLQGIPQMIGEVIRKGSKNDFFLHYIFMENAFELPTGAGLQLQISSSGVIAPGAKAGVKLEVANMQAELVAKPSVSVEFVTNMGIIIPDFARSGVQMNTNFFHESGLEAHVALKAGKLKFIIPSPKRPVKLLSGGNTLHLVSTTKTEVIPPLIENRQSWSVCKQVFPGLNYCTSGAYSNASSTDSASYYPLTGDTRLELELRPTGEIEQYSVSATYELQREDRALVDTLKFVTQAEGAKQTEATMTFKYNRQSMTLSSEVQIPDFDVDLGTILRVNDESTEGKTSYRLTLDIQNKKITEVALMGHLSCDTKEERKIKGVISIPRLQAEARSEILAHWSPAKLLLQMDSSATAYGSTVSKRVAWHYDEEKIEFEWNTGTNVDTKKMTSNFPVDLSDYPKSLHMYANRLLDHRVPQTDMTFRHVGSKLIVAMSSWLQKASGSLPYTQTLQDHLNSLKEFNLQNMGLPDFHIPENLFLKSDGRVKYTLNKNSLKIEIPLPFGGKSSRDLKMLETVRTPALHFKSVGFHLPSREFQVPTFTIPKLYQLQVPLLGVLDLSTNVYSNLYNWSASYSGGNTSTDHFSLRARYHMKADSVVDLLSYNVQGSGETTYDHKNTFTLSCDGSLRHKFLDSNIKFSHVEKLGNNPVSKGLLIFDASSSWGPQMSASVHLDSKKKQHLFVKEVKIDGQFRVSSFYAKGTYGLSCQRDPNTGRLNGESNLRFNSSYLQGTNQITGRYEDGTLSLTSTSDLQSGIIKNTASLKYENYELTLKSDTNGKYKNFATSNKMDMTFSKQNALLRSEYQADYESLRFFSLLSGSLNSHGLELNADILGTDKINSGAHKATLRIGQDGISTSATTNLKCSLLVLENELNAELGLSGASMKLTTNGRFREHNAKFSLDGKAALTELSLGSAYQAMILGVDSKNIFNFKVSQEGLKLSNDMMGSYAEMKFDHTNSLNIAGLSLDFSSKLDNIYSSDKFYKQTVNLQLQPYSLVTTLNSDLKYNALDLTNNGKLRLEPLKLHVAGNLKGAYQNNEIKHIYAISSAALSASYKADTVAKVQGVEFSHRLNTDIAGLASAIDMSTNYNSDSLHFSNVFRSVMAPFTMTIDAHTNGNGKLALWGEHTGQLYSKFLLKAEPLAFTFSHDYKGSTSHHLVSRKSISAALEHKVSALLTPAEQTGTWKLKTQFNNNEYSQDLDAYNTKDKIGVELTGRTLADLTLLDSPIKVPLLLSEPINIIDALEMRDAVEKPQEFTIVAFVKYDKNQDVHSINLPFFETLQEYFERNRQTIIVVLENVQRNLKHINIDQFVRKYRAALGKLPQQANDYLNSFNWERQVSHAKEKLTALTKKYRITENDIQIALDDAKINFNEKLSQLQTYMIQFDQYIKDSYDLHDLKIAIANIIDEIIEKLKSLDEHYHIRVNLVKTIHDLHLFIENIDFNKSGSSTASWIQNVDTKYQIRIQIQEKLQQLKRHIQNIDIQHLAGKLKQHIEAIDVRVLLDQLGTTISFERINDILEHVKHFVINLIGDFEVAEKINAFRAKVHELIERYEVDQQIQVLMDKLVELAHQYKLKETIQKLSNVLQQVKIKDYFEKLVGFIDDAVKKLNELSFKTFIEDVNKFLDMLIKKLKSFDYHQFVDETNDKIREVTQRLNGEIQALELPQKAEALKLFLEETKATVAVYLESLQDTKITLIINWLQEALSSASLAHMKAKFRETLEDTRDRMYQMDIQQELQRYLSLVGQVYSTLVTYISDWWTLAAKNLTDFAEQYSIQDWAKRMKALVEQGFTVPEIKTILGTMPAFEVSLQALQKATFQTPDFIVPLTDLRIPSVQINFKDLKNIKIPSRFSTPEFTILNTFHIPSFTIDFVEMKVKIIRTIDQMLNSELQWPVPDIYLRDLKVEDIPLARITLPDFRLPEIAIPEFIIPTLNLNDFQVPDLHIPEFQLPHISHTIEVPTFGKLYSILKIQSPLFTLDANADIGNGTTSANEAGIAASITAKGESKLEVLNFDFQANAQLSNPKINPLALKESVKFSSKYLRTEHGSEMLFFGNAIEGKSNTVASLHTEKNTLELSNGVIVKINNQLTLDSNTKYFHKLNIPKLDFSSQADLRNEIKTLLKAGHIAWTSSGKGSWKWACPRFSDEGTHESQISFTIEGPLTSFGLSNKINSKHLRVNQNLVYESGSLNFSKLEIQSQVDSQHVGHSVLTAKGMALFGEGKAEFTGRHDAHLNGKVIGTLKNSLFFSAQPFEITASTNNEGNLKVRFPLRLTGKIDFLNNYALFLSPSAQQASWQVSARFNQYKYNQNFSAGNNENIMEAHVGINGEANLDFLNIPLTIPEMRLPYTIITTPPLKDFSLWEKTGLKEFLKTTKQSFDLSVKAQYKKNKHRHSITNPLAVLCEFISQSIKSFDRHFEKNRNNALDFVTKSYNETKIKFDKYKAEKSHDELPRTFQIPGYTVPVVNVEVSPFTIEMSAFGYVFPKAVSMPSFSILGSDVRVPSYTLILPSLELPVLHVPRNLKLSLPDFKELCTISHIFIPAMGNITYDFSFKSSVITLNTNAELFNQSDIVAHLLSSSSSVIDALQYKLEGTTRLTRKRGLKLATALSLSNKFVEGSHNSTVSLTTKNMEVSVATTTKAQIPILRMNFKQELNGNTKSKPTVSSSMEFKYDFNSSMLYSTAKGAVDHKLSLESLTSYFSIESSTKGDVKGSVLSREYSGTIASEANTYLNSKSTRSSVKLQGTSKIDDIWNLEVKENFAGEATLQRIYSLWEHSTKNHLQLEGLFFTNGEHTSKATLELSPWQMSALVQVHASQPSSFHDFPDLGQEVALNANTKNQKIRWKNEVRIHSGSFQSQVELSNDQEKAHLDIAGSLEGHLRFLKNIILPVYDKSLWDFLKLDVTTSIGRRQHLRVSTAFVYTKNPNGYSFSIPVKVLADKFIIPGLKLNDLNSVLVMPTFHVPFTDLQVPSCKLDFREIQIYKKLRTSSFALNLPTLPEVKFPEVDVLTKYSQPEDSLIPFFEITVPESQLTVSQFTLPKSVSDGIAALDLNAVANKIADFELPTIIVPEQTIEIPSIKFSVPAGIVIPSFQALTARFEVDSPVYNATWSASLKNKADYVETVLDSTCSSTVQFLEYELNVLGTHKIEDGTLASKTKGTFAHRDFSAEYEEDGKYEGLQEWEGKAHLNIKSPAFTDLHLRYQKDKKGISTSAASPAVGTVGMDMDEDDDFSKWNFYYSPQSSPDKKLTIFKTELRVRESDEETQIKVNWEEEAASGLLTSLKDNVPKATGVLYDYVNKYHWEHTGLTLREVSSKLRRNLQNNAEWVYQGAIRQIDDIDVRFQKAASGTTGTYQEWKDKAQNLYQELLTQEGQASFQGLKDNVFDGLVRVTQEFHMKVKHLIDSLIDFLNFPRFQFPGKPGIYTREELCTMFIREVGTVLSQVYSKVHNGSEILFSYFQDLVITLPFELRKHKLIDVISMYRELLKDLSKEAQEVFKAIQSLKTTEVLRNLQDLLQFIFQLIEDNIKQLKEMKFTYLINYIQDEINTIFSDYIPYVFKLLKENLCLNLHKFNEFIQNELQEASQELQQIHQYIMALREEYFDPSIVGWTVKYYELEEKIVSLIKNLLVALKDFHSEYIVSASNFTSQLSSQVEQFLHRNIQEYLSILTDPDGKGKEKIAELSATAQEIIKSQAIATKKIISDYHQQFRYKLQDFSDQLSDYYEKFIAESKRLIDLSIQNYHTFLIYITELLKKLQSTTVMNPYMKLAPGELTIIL
Experimental: Spectra were recorded in the peptidic range (200-260 nm). To increase the signal-to-noise ratio, multiple spectra (three) were averaged for each measurement. The deconvolution of the molar elipticity spectra for each measurement was performed using the CDPro suite of software (by Narasimha Sreerama from Colorado State University) on a Dell PC.

[13] = system: WI-L2 human B-lymphocyte line; assay: LDH release cytotoxicity assay, WI-L2; format: cell-based; conditions: B-cell (WI-L2) cell line, concentration range of FIG. 6A (0-100 μM)
Experimental: (§3) Cytotoxicity assays. WI-L2 human B-lymphocyte line, HAAE-1 human abdominal aortic endothelial line, MH-S murine alveolar macrophage line, and J774A.1 murine tissue macrophage line were obtained from the ATCC. Human aortic endothelial cells (HAEC) and human vascular smooth muscle cells (VSMS) were obtained from Cambrex Bio Science. Jurkat E6-1T-lymphocytes were kindly provided by Dr. J. Kaye (The Scripps Research Institute). Cells were cultured in ATCC-recommended media with 10% fetal calf serum. Cells were incubated in a controlled atmosphere at 37° C., with 5 or 7% CO2. For lactate dehydrogenase (LDH) release assays, adherent cells were harvested either by addition of 0.05% trypsin/EDTA or by scraping. The cells obtained were seeded onto 96-well microtiter plates (25,000 cells/well) and allowed to recover for 24-48 h. […] Cytotoxicity was then determined by measuring lactate dehydrogenase (LDH) release from cells in culture. […] 100% Cytotoxicity was defined as the maximum amount of LDH released by dead cells as shown by trypan blue exclusion, or the highest amount of LDH detected upon lysis of cells by 0.9% Triton X-100. The IC50 values were determined by comparison of the raw duplicate data for concentration versus cytotoxicity (%) to non-linear regression analysis (Hill plot) using Graphpad v3.0 software for Macintosh. […]

[14] = system: T-lymphocyte cell line (Jurkat E6.1); assay: LDH release cytotoxicity assay, Jurkat; format: cell-based; conditions: concentration range of FIG. 6B (0-100 μM)
Experimental: as §3

SMILES	integrin expression (ICAM-1) [1]	recruitment (migration) of macrophages ([2]; 0-25 μM, 4 h, P<0.001)	migration of macrophages ([2]; compound co-incubated with BSA)	migration of macrophages ([2]; compound complexed with native LDL (100 μg/ml))	cytotoxicity towards neuronal cell lines [3]	SR-A expression [4]	CD36 expression ([5]; J774A.1, 25 μM compound complexed with LDL (100 μg/ml protein), 6 h)	CD36 expression ([5]; cultured macrophages, compound in the absence of LDL)	decrease of the amount of 5a that can be extracted from plasma [6]	THP-1 monocyte differentiation into macrophages (adherence, morphology) [7]	selectin (E-selectin) expression [8]	lipid-loading of macrophages / foam cell formation [9]	integrin expression (VCAM-1) [10]	adhesion of U-937 monocytes to endothelial cell monolayers, above that of LDL alone [11]	a helical structure of LDL [12] [%]	cytotoxicity [13]	cytotoxicity [14]
CC(C)CCC[C@@H](C)[C@H]1CCC2C3C(CC[C@@]21C)[C@@]1(C)CC[C@H](O)C[C@@]1(O)[C@@H]3C=O (stereo partly drawn) [5a, 3β-Hydroxy-5β-hydroxy-B-norcholestane-6βcarboxaldehyde]	no effects	dose-dependent recruitment of macrophages	macrophage migration still occurs	no significant migration	cytotoxic	did not increase expression of either receptor	little or no effect	did not increase expression of either receptor	about 5 % per day	displayed hypertrophy, developed cytoplasmic vacuoles, and formed extended processes, all characteristic of mature macrophages	no effects	began lipid-loading and foam cells began to appear	no effects	neither ozonolysis product 4a nor 5a, alone or in complex with LDL, nor CuOx-LDL significantly increased adhesion	~20±2	–	–
CC(C)CCC[C@@H](C)[C@H]1CC[C@H]2[C@@H]3CC=C4C[C@@H](O)CC[C@]4(C)[C@H]3CC[C@]12C [compound 3, cholesterol, reference compound]	no effects	–	–	–	–	–	–	–	–	neither became adherent nor developed the aforementioned morphological changes	no effects	–	no effects	–	–	No cytotoxicity	No cytotoxicity
